Here are results for 2 compounds from patent US20190365784A1, “USE OF BRASSINOSTEROID ANALOGS FOR THE TREATMENT OF DERMAL DISORDERS BY SELECTIVELY MODULATING LIVER X RECEPTORS (LXR) AND DERMAL DISEASE TREATMENT BY BRASSINOSTEROID ANALOGS ACTING AS SELECTIVE LIVER X RECEPTOR (LXR) MODULATORS” (CONSEJO NACIONAL DE INVESTIGACIONES CIENTÍFICAS Y TÉCNICAS …, priority 2015, published 2019).

Molecules are shown by their SMILES.

The test system of assay [1] is LXR-alpha. In words: LXR-alpha expression in UV-irradiated HaCaT cells (real time PCR). The format is cell-based, human. Conditions: 10 uM, 24 h after UV, vs. DMSO (UV, 24 h) and GW3965 (UV, 24 h). The method, then:
(§1) HaCaT cells—a human immortalized keratinocyte cell line—were exposed to 15 J/m^2 UVB (254 nm) irradiation. Twenty four hours after irradiation, the cells were harvested and RNA isolated to assess the expression of LXR-alpha, LXR-beta, ABCA1, TNF-alpha, IL-6, and IL-8 genes. HaCaT cells were cultured in DMEM supplemented with 10% (v/v) fetal bovine serum, penicillin (100 U/mL), streptomycin ([…]) and glutamine (2 mM). […] The expressions of ABCA1, TNF-alpha, IL-6, IL-8, LXR-alpha, and LXR-beta were normalized according to glyceraldehyde-3-phosphate dehydrogenase (GAPDH) expression. The results of three independent assays, carried out in duplicate for each condition, are reported.
(In general: Real-time PCR tracks product formation cycle by cycle.)

For assay [2], the system named is ABCA1. As to the kind of experiment: ABCA1 expression in HepG2 cells (real time PCR). Type of assay: cell-based, human. To be noted: 1 uM, 3 uM and 10 uM, 6 h.
Assay [3] deals with T1, LXR-alpha (Homo sapiens, UniProt Q13133).
T1 sequence (Q13133 1-447): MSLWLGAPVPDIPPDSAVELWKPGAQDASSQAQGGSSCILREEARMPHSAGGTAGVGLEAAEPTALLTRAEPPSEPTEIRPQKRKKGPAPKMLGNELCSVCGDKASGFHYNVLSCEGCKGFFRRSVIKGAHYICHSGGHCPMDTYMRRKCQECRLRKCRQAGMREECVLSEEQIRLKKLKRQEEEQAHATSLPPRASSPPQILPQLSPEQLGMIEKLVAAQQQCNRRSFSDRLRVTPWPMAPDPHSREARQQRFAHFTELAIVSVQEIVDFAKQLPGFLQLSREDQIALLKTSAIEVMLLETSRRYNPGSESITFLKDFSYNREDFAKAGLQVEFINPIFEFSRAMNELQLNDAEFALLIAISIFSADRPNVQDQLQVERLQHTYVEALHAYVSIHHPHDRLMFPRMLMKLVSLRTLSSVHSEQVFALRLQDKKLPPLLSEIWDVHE
T1 sequence (P19793 1-462 partner): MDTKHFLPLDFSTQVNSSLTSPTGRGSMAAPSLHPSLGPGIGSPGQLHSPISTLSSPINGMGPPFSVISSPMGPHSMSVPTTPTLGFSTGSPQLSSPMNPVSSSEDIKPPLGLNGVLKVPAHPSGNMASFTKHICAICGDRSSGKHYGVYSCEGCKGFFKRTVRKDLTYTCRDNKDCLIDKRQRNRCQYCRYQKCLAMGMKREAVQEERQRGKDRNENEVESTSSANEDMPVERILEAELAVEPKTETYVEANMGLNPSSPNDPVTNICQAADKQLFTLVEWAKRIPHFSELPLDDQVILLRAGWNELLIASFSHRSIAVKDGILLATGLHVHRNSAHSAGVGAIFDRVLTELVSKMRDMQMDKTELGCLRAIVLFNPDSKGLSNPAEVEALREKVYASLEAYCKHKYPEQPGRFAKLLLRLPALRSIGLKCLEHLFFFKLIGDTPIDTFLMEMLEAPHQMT
In words: LXR-alpha/RXR LRE-luciferase reporter in transfected HEK293T cells. Type of assay: cell-based. Conditions: 10 uM, 18 h. The source says: Since we had previously shown that the beneficial effects of the compounds of the invention are independent of glucocorticoid receptor (GR) activation, we set forth to investigate if they might exert their actions through activation of liver X receptors (LXR). For this purpose we used cultured cells transiently transfected with LXR-alpha, the retinoid X receptor (RXR) and a LXR response element-luciferase reporter (LRE-LUC). A. Human embryonic kidney cells (HEK293T; 5×10^5 cells/well) were cultured in DMEM medium supplemented with 10% (v/v) fetal bovine serum, 100 ug/ml of streptomycin, 100 IU/ml of penicillin and 2 mM glutamine. For the transient transfections, the cell cultures were added with plasmids carrying LXR-alpha (pLXR-alpha; 0.6 ug), the retinoid X receptor (pRXR; 0.2 ug), a LXR response element-luciferase reporter (pRE-LUC; 0.7 ug) and beta-galactosidase gene (pRSV-LacZ; 0.6 ug) as a transfection control, using Lipofectamine 2000 (Invitrogen). […] Compounds III to VI are […] analogs bearing a fluorine atom at C-6. To assess LXR-alpha activation, at the end of the incubation period luciferase activity was measured by use of a luciferase assay system (Promega). The results of three independent assays, carried out in duplicate for each condition, are reported.
(A reporter such as luciferase makes a cellular process visible.)

In assay [4] the test system is LXR-beta. As to the kind of experiment: LXR-beta expression in UV-irradiated HaCaT cells (real time PCR). To be noted: 10 uM, 24 h after UV, vs. DMSO (UV, 24 h) and GW3965 (UV, 24 h). The format is cell-based, human. How it is done: as §1
The subject of assay [5] is fatty acid synthase (FAS or FASN). As to the kind of experiment: FASN expression in HepG2 cells (real time PCR). Conditions: 1 uM, 3 uM and 10 uM, 6 h. Type of assay: cell-based, human.
Procedure: The cells were incubated for 6 h in the presence of either Compound I (10 uM), or Compound II (10 uM), or the commercial LXR agonist GW3965 (1 uM), or Vehicle [DMSO, 0.1% (v/v)]). To obtain RNA, at the end of the incubation the cells were collected by centrifugation at 1,000 rpm for 2 min, washed with phosphate buffered saline, and lysed in 300 ul TRIZOL (Invitrogen). RNA samples were suspended in ul of RNAse free water, and their concentration determined (NanoDrop spectrophotometer). The ratio of the absorbance at 260 and 280 nm was used to assess RNA purity of an RNA preparation, with a value of 1.8-2.0 indicating pure RNA. To obtain cDNA, 1 ug of total RNA was denatured by incubating for 5 min at 70° C., before the addition of a mixture containing 0.5 ug oligo-dT primers and 25 ng/ml of random primers (Invitrogen), 1.0 mM dNTPs (Invitrogen), and 200 U M-MLV reverse transcriptase (Promega); after this the mixture was retrotranscribed at 37° C. for 60 min, followed by an incubation at 95° C. for 5 min to inactivate the enzyme. For the real time PCR amplification (Stratagene Thermal Cycler), cDNA samples were diluted 1/5 to 1/10 depending on the target amplification product. Calibration curves were obtained by use of eight successive 1:2 sample dilutions. Amplifications were carried out in a 25 ul final volume (5 ul cDNA sample plus 20 ul of reaction mixture) in the presence of either 3, 4 or 5 mM MgCl2 (depending on the amplified sequence), 0.25 mM dNTPs (Invitrogen), 1.25 U Taq polymerase (Invitrogen), 1 μM of the specific primers according to the target amplification sequence, and 0.025 μl SYBR Green (Roche). Melting curves were used to assess the specificity of the amplification products. […]
In assay [6] the test system is fatty acid synthase (FAS). As to the kind of experiment: FAS expression in HL-60 cells (real time PCR). Type of assay: cell-based, human. To be noted: 10 uM, 6 h. How it is done:
To investigate the effects of Compounds I and II on the expression of three genes involved in lipid metabolism [fatty acid synthase (FAS); and two ATP-dependent cholesterol and phospholipid transporters, such as ABCA1 and ABCG1], human promyelocytic leukemia cells (HL-60) that endogenously express LXR-alpha and LXR-beta were incubated in the presence of either Comp I or Comp II (10 uM), or GW3965 (1 uM) for 6 h. mRNA levels for FAS, ABCA1 and ABCG1 were determined by real time PCR and results were normalized to GAPDH expression. HL-60 (10^6 cells/well) were cultured in RPMI medium supplemented with 5% (v/v) fetal bovine serum, penicillin (100 IU/mL), streptomycin (100 ug/mL) y cyprofloxacin (0.4 ug/mL). […] To obtain RNA, at the end of the incubation the cells were collected by centrifugation at 1,000 rpm for 2 min, washed with phosphate buffered saline, and lysed in 300 ul TRIZOL (Invitrogen). RNA samples were suspended in […] of RNAse free water, and their concentration determined (NanoDrop spectrophotometer). […] To obtain cDNA, 1 ug of total RNA was denatured by incubating for 5 min at 70° C., before the addition of a mixture containing 0.5 ug oligo-dT primers and 25 ng/ml of random primers (Invitrogen), 1.0 mM dNTPs (Invitrogen), and 200 U M-MLV reverse transcriptase (Promega); after this the mixture was retrotranscribed at 37° C. for 60 min, followed by an incubation at 95° C. for 5 min to inactivate the enzyme. For the real time PCR amplification (Stratagene Thermal Cycler), cDNA samples were diluted 1/5 to 1/10 depending on the target amplification product. Calibration curves were obtained by use of eight successive 1:2 sample dilutions. Amplifications were carried out in a 25 ul final volume (5 ul cDNA sample plus 20 ul of reaction mixture) in the presence of either 3, 4 or 5 mM MgCl2 (depending on the amplified sequence), 0.25 mM dNTPs (Invitrogen), 1.25 U Taq polymerase (Invitrogen), 1 μM of the specific primers according to the target amplification sequence, and 0.025 μl SYBR Green (Roche). […]

`CC[C@@H](C(C)C)[C@H](O)[C@@H](O)[C@@H](C)[C@H]1CC[C@H]2[C@@H]3CCC4=CC(=O)CC[C@]4(C)[C@H]3CC[C@]12C` [Compound I, (22S,23S)-22,23-dihydroxystigmast-4-en-3-one]: in assay [1], the LXR-alpha expression entry is “stimulated LXR-alpha expression even further”. In addition, the “induction of ABCA1 expression” value in assay [2] is “did not induce”. Also, the “induction of LXR-alpha driven gene expression compared with GW3965 (1 uM)” value in assay [3] is reported as “within the same range as that observed for GW3965”. In addition, the LXR-beta expression result in assay [4] is recorded as “stimulated LXR-beta expression even further”. Besides, the “induction of FASN expression” value in assay [5] is given as “did not induce”. Further, the “FAS mRNA lower than in vehicle-treated cells” value in assay [6] is about 40%.

In the case of `CC[C@@H](C(C)C)[C@H](O)[C@@H](O)[C@@H](C)[C@H]1CC[C@H]2[C@@H]3CCC4=CC(=O)C=C[C@]4(C)[C@H]3CC[C@]12C` [Compound II, (22S,23S)-22,23-dihydroxystigmasta-1,4-dien-3-one], the LXR-alpha expression entry in assay [1] is given as “stimulated LXR-alpha expression even further”. The “induction of ABCA1 expression” value in assay [2] was “did not induce”. For the same compound, the “induction of LXR-alpha driven gene expression compared with GW3965 (1 uM)” value in assay [3] is “within the same range as that observed for GW3965”. Also, the LXR-beta expression entry in assay [4] is listed as “more modest than that observed for Compound I”. For the same compound, the “induction of FASN expression” value in assay [5] was “did not induce”. Besides, the “FAS mRNA lower than in vehicle-treated cells” value in assay [6] is about 40%.
